{"source": "patent US20190327974A1", "about": "“SYNERGISTS FOR IMPROVED PESTICIDES” (priority 2017, published 2019)", "key": {"[1]": {"system": "Lucilia cuprina larvae, field strain Tara resistant to diazinon", "assay": "Lucilia cuprina larval bioassay (pupation rate), field strain", "type": "in vivo", "from_the_text": "Diazinon resistance is typically associated with the Gly137Asp mutation/resistance allele. […] This is consistent with previous results showing that duplications of the chromosomal region containing αE7 have occurred, meaning that resistant strains now carry copies of both WT and Glyl37Asp LcαE7.\nTwo strains of L. cuprina were used: 1) a laboratory reference drug-susceptible strain, LS, derived from collections in the Australian Capital Territory over 40 years ago, with no history of exposure to insecticides; and 2) a field-collected strain, Tara, resistant to diazinon and diflubenzuron (Levot, G. W. & Sales, N. New high level resistance to diflubenzuron detected in the Australian sheep blowfly, Lucilia cuprina (Wiedemann) (Diptera: Calliphoridae). Gen. Appl. Entomol. 31, 43-46 (2002)). The LcαE7 gene was sequenced in each of the strains. Briefly, genomic DNA was prepared from 20 adult female flies from each strain using the DNeasy Blood and Tissue kit (Qiagen). PCR was performed with primers specific to the LcαE7 gene, and the product was cloned into a pGEM-T EASY vector (Promega). Eight clones of the susceptible strain and 10 clones of the resistant strain were sequenced using M13 forward and reverse primers.\nThe effect of compounds 2, 3, 5, 3.9 and 3.10 on the development of blowfly larvae in the presence of diazinon/malathion was assessed using a bioassay system in which larvae were allowed to develop from the first instar stage until pupation on cotton wool impregnated with diazinon/malathion over a range of concentrations, in the presence or absence of the compounds at constant concentrations (Kotze, A. C. et al. Histone deacetylase enzymes as drug targets for the control of the sheep blowfly, Lucilia cuprina. Int. J. Parasitol. Drugs Drug Resist. 5, 201-208 (2015)). Each experiment utilized 50 larvae at each diazinon/malathion concentration. Experiments were replicated three times for diazinon, and twice for malathion. The insecticidal effects were defined by measuring the pupation rate. […] Compounds were also without diazinon or malathion at 1 mg per assay."}, "[2]": {"target": "Lucilia cuprina αE7 carboxylesterase (LcαE7) variant Gly137Asp (Lucilia cuprina, UniProt Q25252, G137D)", "sequence (Q25252 entry or part of it G137D)": "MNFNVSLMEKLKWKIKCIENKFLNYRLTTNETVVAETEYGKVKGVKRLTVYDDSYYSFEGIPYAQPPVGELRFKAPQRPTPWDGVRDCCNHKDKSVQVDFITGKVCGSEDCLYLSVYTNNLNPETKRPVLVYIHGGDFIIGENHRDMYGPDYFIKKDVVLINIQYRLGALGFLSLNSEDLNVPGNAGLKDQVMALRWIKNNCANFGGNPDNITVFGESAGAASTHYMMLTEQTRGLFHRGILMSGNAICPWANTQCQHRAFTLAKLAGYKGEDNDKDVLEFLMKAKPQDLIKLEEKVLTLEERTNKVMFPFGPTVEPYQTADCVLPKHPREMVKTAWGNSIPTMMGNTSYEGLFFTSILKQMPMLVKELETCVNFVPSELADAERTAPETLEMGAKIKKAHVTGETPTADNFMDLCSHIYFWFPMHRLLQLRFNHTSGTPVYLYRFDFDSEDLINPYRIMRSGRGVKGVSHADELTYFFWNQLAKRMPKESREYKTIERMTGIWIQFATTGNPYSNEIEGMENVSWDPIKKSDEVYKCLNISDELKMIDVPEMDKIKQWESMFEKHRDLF", "assay": "Inhibition of Gly137Asp LcαE7, 4-nitrophenol butyrate hydrolysis", "type": "biochemical", "from_the_text": "The term “carboxyethylesterase” (CBE), refers to insect carboxylesterases from the alpha and beta and non-microsomal gene clusters, as defined in Oakeshott, Claudianos, Campbell, Newcomb and Russell, “Biochemical Genetic and Genomics of Insect Esterases”, pp 309-381, Chapter 10, Volume 5, 2005, Eds. Gilbert, Iatrou, Gill, published—Elsevier which is incorporated herein by reference. The αE7 CBE is an example of an alpha esterase, and is found in the sheep blowfly, Lucilia cuprina, with homologous genes being present in other insect pests. […]\nHis6-tagged proteins were expressed in BL21(DE3) E. coli (Invitrogen) at 26° C. for 18 hours. […] Protein concentration was determined by measuring the absorbance at 280 nm with an extinction coefficient calculated using the Protparam online server (Gasteiger, E. et al. Protein identification and analysis tools on the ExPASy server. Proteomics Protoc. Handb. 571-607 (2005). doi:10.1385/1-59259-890-0:571).\nInhibition of wild-type αE7 and the Gly137Asp αE7 variant was determined by a competition assay between the native-substrate analogue 4-nitrophenol butyrate (Sigma) and the boronic acid compounds. Initially, the Michalis constant (KM) with 4-nitrophenol butyrate was measured for both enzymes to determine an appropriate concentration of substrate for use in the competition assays. […]"}, "[3]": {"assay": "Observation of the spray mixtures (flocculation)", "type": "physicochemical", "conditions": "alone and in mixture with CPE in all doses"}}}
{"smiles": "OB(O)c1cc(Br)cc(Oc2ccccc2)c1", "note": "[Compound 3.10, 3-Bromo-5-phenoxyfenylboronic acid]", "values": [{"measurement": "reduction of diazinon EC50 compared to a diazinon only control", "setting": "[1]; field strain", "result": 12, "unit": "fold"}, {"measurement": "sensitivity of field strain to diazinon compared to the laboratory strain treated with only diazinon", "setting": "[1]; fold more sensitive", "result": 4, "unit": "fold"}]}
{"smiles": "OB(O)c1cc(Br)cc(N2CCCC2)c1", "note": "[Compound 3]", "values": [{"measurement": "inhibition of Gly137Asp LcαE7", "setting": "[2]", "result": "poor inhibitor of Gly137Asp LcαE7"}]}
{"smiles": "OB(O)c1ccc(OCc2ccccc2F)c(Cl)c1", "note": "[Compound 5, 3-Chloro-4(2′-fluorobenzyloxy) phenylboronic acid]", "values": [{"measurement": "flocculation", "setting": "[3]", "result": "Flocculation is observed"}]}
